This note sets out measurements from patent US20220218714A1, “METHOD OF TREATING CANCER” (Epizyme, Inc., priority 2013, published 2022).

Each structure is given as a SMILES string. “Also recorded” adds a separate entry of the source.

Test [1] relates to H3K27me3 in HS-SY-II xenograft. The test is described as follows: PD alterations in HS-SY-II xenograft model (tumor H3K27me3 ELISA, 7 days). Conditions: for Mean 2 (H3K27me3 level in tumor, fold change to vehicle): vehicle mean = 1; for Mean Diff. (vehicle vs. treated, tumor H3K27me3): Dunnett's multiple comparisons test; for Significant? (vehicle vs. treated, tumor H3K27me3): Dunnett's test, alpha 0.05. Type of test: in vivo, mice. As to the method: HS-SY-II cells were harvested during mid-log phase growth, and resuspended in Hank balanced salt solution with 50% Matrigel (BD Biosciences). Balb/C-nu mice (Charles River Laboratories Japan) received 1×10^7 cells (0.1 mL cell suspension) subcutaneously in the right flank. Mice carrying tumors of approximately 200 mm^3 (31 days after injection) were sorted into treatment groups with similar mean tumor volumes. Compound A or vehicle (0.5% MC+0.1% Tween-80 in water) was administered at the indicated doses on twice a day for 7 days by oral gavage. Each dose was delivered in a volume of 0.2 mL/20 g mouse (10 mL/kg), and adjusted for the last recorded weight of individual animals. Peripheral blood samples were collected at approximately 5 minutes before and 3 hours after the last dose from Compound A-treated mice. After obtaining plasma samples by centrifugation, the analysis for plasma concentrations of Compound A was conducted by the liquid chromatography-tandem mass spectrometry (LC/MS/MS) method. The UPLC system (Acquity, Waters) equipped with a mass spectrometer (Quattro premier, MICROMASS) was used for quantification of Compound A. The concentrations are plotted (n=5) in FIG. 7A. Each bar represents a mean of plasma concentration in each group.
For FIG. 10D, tumors were snap-frozen in liquid nitrogen. Frozen tumor samples were cut into a 20 mg pieces and placed in 500 μL of ice cold nuclear extraction buffer (10 mM Tris-HCl, 10 mM MgCl2, 25 mM KCl, 1% Triton X-100, 8.6% Sucrose, plus lx Halt Protease inhibitor cocktail (1861281, Thermo Scientific)) and homogenized with a handy micro homogenizer. Nuclei were collected by centrifugation at 600 g for 5 minutes at 4° C. and washed once with ice cold PBS. Supernatant was removed and histones extracted for one hour with 100 μL, of 0.4 N cold sulfuric acid. Extracts were clarified by centrifugation at 10,000 g for 10 minutes at 4° C. and transferred to a fresh microcentrifuge tube containing 1 mL of ice cold acetone. Histones were precipitated at -20° C. for overnight, pelleted by centrifugation at 10,000 g for 10 minutes and resuspended in 100 p1 of water. Histones were quantified using the BCA protein assay (23225, Pierce). The diluted histones were coated on Immulon 4HBX plates (3855, Thermo Scientific) overnight and ELISA was performed. Briefly, after blocking with PBS containing 0.05% Tween 20 and 2% bovine serum albumin (BSA), the plates were incubated with H3K27me3 antibody (#9733, Cell Signaling Technology) or total histone H3 antibody (AB1791, Abcam). The plates were further incubated with horseradish peroxidase conjugated anti-rabbit IgG (#7074, Cell Signaling Technology), followed by incubated with TMB substrate (TMBS-0100-01, BioFx Laboratories). Subsequently, the developed colors in the wells were measured using a plate spectrophotometer (SpectraMax 250, Molecular Devices) at 450 nm (reference wavelength 650 nm). The H3K27me3 levels were adjusted to total histone H3, and expressed as fold changes to vehicle control. The values are plotted (n=6) in FIG. 10D. Each bar represents a mean of the values in each group. […] Histones were extracted and quantified, and the levels of H3K27me3 were analyzed as described above. Trimethylation levels of H3K27 in the tumor are plotted (n=5) in FIG. 7B. Each bar represents a mean ±SEM of the trimethylation level in each group.
(In general: In an ELISA, binding on a coated surface is turned into a signal by an enzyme label.)

The next test deals with HS-SY-II cells. The experiment in a line: Adherent cell line 14-day long-term proliferation assay (CellTiter-Glo). Type of test: cell-based, human. As to the method:
(§1) 96-well plating for 7 day assay: For each adherent cell line, plated cells in a volume of 100 μL in 96-well plates, to be treated in triplicate, either in the evening (to treat with compound the following day) or in morning (to treat with compound in the evening), to allow cells to attach to plates before compound treatment.
(§2) 6-well plates to be split for 7-14 day assay: Plated 2mL of cells at the correct density in each well of the 6-well plate. Calculated the correct density from the 96-well plate growth curve by multiplying the 96-well density by 30. The factor 30 came from growth area of the 6-well plate divided by the growth area of the 96-well plate (9.5cm^2/0.32cm^2=29.7, rounded up to 30), which corresponds to 30-fold more surface area in a 6-well vs. a 96-well plate.
(§3) Day 0: Treated with compound or DMSO by removing media and adding back either […] (for 96-well plate) or 2 mL (for 6-well plate) media with the correct dilutions of compound/DMSO. Table 1 includes an example of 96-well plate map. Plates were incubated for 96 hours.
(§4) Read one 96-well plate with CellTiter-Glo®, for a Day 0 reading (media change not necessary for this plate).
(§5) Day 4: Read one 96-well plate with CellTiter-Glo® for a Day 4 reading (media change not necessary for this plate before reading). Replaced media with fresh media containing compound on Day 4 in 96-well plates and 6-well plates.
(§6) Day 7: read final 96-well plate with CellTiter-Glo®.
(§7) Counted individual wells of 6-well plates, and replated cells to initial plating density in 96-well plates, as described above.
(§8) Repeated steps for Days 0-7 for Days 7-14 of the proliferation assay.
(§9) Particularly, approximately 12 hours before compound treatment, HS-SY-II or SW982 cells were plated at the density of 24,000 cells/well and 7,500 cells/well, respectively in 6-well plates. On day 0, cells were treated with either DMSO or compound starting at 10 μmol/L and decreasing in fourfold dilutions. On day 7, the cells in 6-well plates were trypsinized, counted by TC10 automated cell counter (Bio-Rad, Richmond, Calif.) and replated at the density of 800 cells/well and 250 cells/well for HS-SY-II and SW982, respectively in 96-well plates in triplicate. The cells were allowed to adhere to the plate overnight, and treated with either DMSO or compound as on Day 0. On days 0, 7, 11, and 14, cell viability was determined by CellTiter-Glo® Luminescent Cell Viability Assay (Promega) with EnVision 2103 Multilabel Reader (Perkin-Elmer, Wellesley, Mass.). Compound/media was changed with new one on Day 4 and 11. The ratios of the measured values on Days 7, 11, and 14 to that of day 7 were used to plot proliferation from day 7 to day 14, and to calculate the IC50 values on Day 14. […]
(In general: Cellular ATP, detected with luciferase, serves as a proxy for viable cell number.)

For another test, the system named is SW982 cells. The test is described as above. Type of test: cell-based, human. As to the method:
as §1, §2, §3, §4, §5, §6, §7, §8, §9

Setting [2] is: tumor H3K27me3 across dose groups (FIG. 7B).

In the case of `CCN(c1cc(-c2ccc(CN3CCOCC3)cc2)cc(C(=O)NCc2c(C)cc(C)[nH]c2=O)c1C)C1CCOCC1` [Compound A], the “Mean 2 (H3K27me3 level in tumor, fold change to vehicle)” value in test [1] (125 mg/kg oral twice daily 7 days) was determined as 0.7; in test [1] (250 mg/kg oral twice daily 7 days) it was 0.55; in test [1] (500 mg/kg oral twice daily 7 days) it was 0.304. Further, the “Mean Diff. (vehicle vs. treated, tumor H3K27me3)” value in test [1] (125 mg/kg) is 0.3; in test [1] (250 mg/kg), 0.45; in test [1] (500 mg/kg, listed as E7435) it was 0.696; in test [1] (500 mg/kg, listed as E7438), 0.896. In addition, the “Significant? (vehicle vs. treated, tumor H3K27me3)” value in test [1] (125 mg/kg), in test [1] (250 mg/kg) and in test [1] (500 mg/kg) was “Yes” throughout. Also, the “H3K27me3 levels in tumor tissues” value in test [1] (oral twice daily for 7 days) is given as “dose dependent decrease”. Further, the “Is linear trend significant (P <0.05)?” value in test [1] (setting [2]) is on record as “Yes”. In addition, the “Post test for linear trend: R squared” value in test [1] (setting [2]) stood at 0.9104. Moreover, in test [1] (setting [2]), the “Post test for linear trend: Slope” value is −0.1119. Further, the “sensitivity (cell proliferation / viability)” value in the test on HS-SY-II cells is “high sensitivity; also recorded: highly sensitive”; with SW982 cells, “did not; also recorded: not sensitive”.
